According to ChEMBL document CHEMBL1201862, “PubChem BioAssay data set” (2004):
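Following 48 hours of exposure in 96-well plates, responses at five concentrations were used to interpolate endpoints linearly. Abbreviation: GI50, concentration required for 50% inhibition of growth.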 Active and inactive are the calls of the source. No stated cut-off is given here; in the data, active = GI50 up to about 1.1 µM and inactive = higher.

Tests used:
Test in all cases: NCI-60 cell line screen, 48 h
SN12C = system: SN12C
UO-31 = system: UO-31
SF-268 = system: SF-268
RXF 393 = system: RXF 393
SK-OV-3 = system: SK-OV-3
KM12 = system: KM12
NCI-H460 = system: NCI-H460
COLO 205 = system: COLO 205
SF-539 = system: SF-539
SK-MEL-2 = system: SK-MEL-2
OVCAR-8 = system: OVCAR-8
SNB-19 = system: SNB-19
A549 = system: A549
OVCAR-5 = system: OVCAR-5
K562 = system: K562
HOP-92 = system: HOP-92
CCRF-CEM = system: CCRF-CEM
786-0 = system: 786-0
LOX IMVI = system: LOX IMVI
TK-10 = system: TK-10

Measured: GI50

COc1ccc(C)cc1NC(=S)N/N=C/c1ccco1
inactive: SN12C 45.3 µM | UO-31 79.3 µM | SF-268 56.1 µM | RXF 393 52.1 µM | SK-OV-3 > 100 µM | KM12 18.9 µM | NCI-H460 34.1 µM | COLO 205 21.8 µM | SF-539 27.6 µM | SK-MEL-2 16.6 µM | OVCAR-8 37.3 µM | SNB-19 99.3 µM | A549 48.4 µM | OVCAR-5 > 100 µM | K562 25.9 µM | HOP-92 64.6 µM | CCRF-CEM 29 µM | 786-0 38 µM | LOX IMVI 43.1 µM

Cc1cc(C)nc(SCCc2cccc[n+]2C)n1
inactive: SN12C > 100 µM | UO-31 > 100 µM | SF-268 > 100 µM | RXF 393 > 100 µM | SK-OV-3 > 100 µM | KM12 > 100 µM | NCI-H460 > 100 µM | COLO 205 > 100 µM | OVCAR-8 > 100 µM | SNB-19 > 100 µM | A549 34.4 µM | OVCAR-5 36.1 µM | K562 > 100 µM | HOP-92 > 100 µM | TK-10 > 100 µM | CCRF-CEM > 100 µM | 786-0 > 100 µM | LOX IMVI > 100 µM

O=C(NNC(=O)c1c(Cl)c(Cl)c(Cl)c(Cl)c1-c1nc2ccccc2[nH]1)c1ccc(Cl)cc1
inactive: SN12C 37.7 µM | UO-31 30.3 µM | SF-268 > 100 µM | RXF 393 43.4 µM | SK-OV-3 > 100 µM | KM12 38.1 µM | COLO 205 32.1 µM | SF-539 47.4 µM | SK-MEL-2 37.9 µM | OVCAR-8 66.1 µM | SNB-19 68.5 µM | A549 45 µM | OVCAR-5 > 100 µM | K562 35.8 µM | HOP-92 24.6 µM | CCRF-CEM 22.4 µM | 786-0 51.8 µM | LOX IMVI 65.9 µM

Cc1nc(C)c(N2CCN(C#N)CC2)c(O)n1
inactive: SN12C > 100 µM | UO-31 > 100 µM | SF-268 > 100 µM | RXF 393 > 100 µM | SK-OV-3 > 100 µM | KM12 > 100 µM | NCI-H460 > 100 µM | COLO 205 > 100 µM | SF-539 > 100 µM | OVCAR-8 93.3 µM | SNB-19 > 100 µM | A549 > 100 µM | K562 > 100 µM | HOP-92 > 100 µM | TK-10 > 100 µM | CCRF-CEM > 100 µM | 786-0 > 100 µM | LOX IMVI > 100 µM

CCNC12CCC(C1)C(C)(C)C2=O (centres undefined)
inactive: SN12C > 100 µM | UO-31 > 100 µM | RXF 393 > 100 µM | SK-OV-3 > 100 µM | KM12 > 100 µM | NCI-H460 > 100 µM | COLO 205 > 100 µM | SK-MEL-2 > 100 µM | OVCAR-8 > 100 µM | SNB-19 > 100 µM | A549 > 100 µM | OVCAR-5 > 100 µM | K562 > 100 µM | HOP-92 > 100 µM | TK-10 > 100 µM | CCRF-CEM > 100 µM | 786-0 > 100 µM | LOX IMVI > 100 µM

CC1(C)N=c2c(ncn2N)=C(C(N)=O)N1
inactive: SN12C > 100 µM | SF-268 > 100 µM | RXF 393 > 100 µM | SK-OV-3 > 100 µM | KM12 > 100 µM | NCI-H460 > 100 µM | COLO 205 > 100 µM | SF-539 > 100 µM | OVCAR-8 > 100 µM | SNB-19 > 100 µM | A549 > 100 µM | OVCAR-5 > 100 µM | K562 > 100 µM | HOP-92 22.3 µM | TK-10 > 100 µM | CCRF-CEM > 100 µM | 786-0 > 100 µM | LOX IMVI > 100 µM
